Laboratory results as given in US9296787B2, “Antitumor peptide and use thereof” (priority 2011, dated 2016).
Where two headings read alike, the source gives them in different places. Positions of bridges follow the written chain, without caps; N, C: chain ends. Residues, ends and D or L forms follow the SMILES beside them. No end group written: not given here.

Columns and labels:
Assay type in all cases: cell-based
[1] = test system: mouse neuroblastoma cell line (N1E-115); conditions: for A450(-A620) After 6 hers: WST-8 absorbance after 6 hours; for A450(-A620) After 24 hers: WST-8 absorbance after 24 hours
Procedure: Some of the sample peptides obtained in Example 1 were tested for antitumor activity against target cultured tumor cells. Details of the assay are as described below.
(§1) As the tumor cells tested, a commercial mouse neuroblastoma cell line (N1E-115) was used. The cell line was cultured beforehand in a DMEM medium (i.e. Dulbecco MEM medium (DMEM medium, a Gibco product) containing 10% fetal bovine serum (FBS, a Gibco product), 2 mM of L-glutamine, 50 unit/mL of penicillin, and 50 μg/mL of streptomycin), and the number of cells per well in a 96-well plate was adjusted to approximately 5×10^3. The volume of the medium for this was 100 μL per well.
(§2) Subsequently, the stock solution of each sample peptide shown in Table 3 was added to each well to a peptide concentration in the well of 50 μM or 100 μM.
(§3) After the sample peptides were added as described above, the 96-well plate was placed in a CO2 incubator and cultured without agitation at 37° C. under 5% CO2. At the time of the peptide addition (at the start of treatment) and at 6 hours or 24 hours from the peptide addition and the start of incubation, the viability status of the cultured cells tested was analyzed with a commercial colorimetric assay kit. In particular, to each cell-culturing well, “water-soluble tetrazolium salt (WST-8)” was added as a colorimetric reagent; after two hours of incubation following the addition, the cell culture medium supplied with the colorimetric reagent was collected; and the level of inhibition of cell proliferation was evaluated by colorimetry, measuring the absorbance at a wavelength of 450 nm (values corrected with the absorbance at a wavelength of 620 nm, A450-A620) based on reduction of tetrazolium salt. Based on the absorbance at the time of the sample peptide addition (at the start of treatment), the percent decrease in the absorbance after 6 hours or 24 hours was determined as the cell proliferation inhibition rate (%).

HeLa cells = experiment: Multipolar spindle formation, DAPI and anti-tubulin immunofluorescence microscopy; conditions: after 24 hours
Procedure: In addition, the cultured cells supplemented with the peptides were observed under fluorescence microscope. Herein, as for some examples, the observations on Samples 1, 9, 13, 16, 21 and 35 are outlined. In particular, each peptide was added to a peptide concentration in a well of 50 μM (Samples 1, 9) or 100 μM (Samples 13, 16, 21, 35). After 24 hours, the cultured cells were subjected to nuclear staining with DAPI (4′,6-diamidino-2-phenylindole) and observed under fluorescence microscope. As a marker for spindles, α-tubulin was used; and the cells were tested for the presence of tubulin (i.e. the presence of spindles) by immunofluorescence, using a fluorescence-labeled anti-tubulin antibody to identify the tubulin. FIGS. 1 to 6 show merged images of DAPI-stained images and fluorescence images showing the results of the immunofluorescence assays using the fluorescence-labeled anti-tubulin antibody.

HeLa cells (HeLa S3) = conditions: WST-8 absorbance after 24 hours
Procedure: as §1, §2, §3
HeLa cells (HeLa S3) were substituted for the tumor cells tested and the same test as Example 2 described above was carried out. In the present example, the peptides of Samples 1 to 7, 9, 10, 13, 16, 21 and 35 were used.

[2] = test system: human alveolar basal epithelial adenocarcinoma cells, A549; conditions: for antitumor activity (tumor cell proliferation-inhibiting activity), in words: A549, 50 μM, 24 hours, summary of Table 5; for A450(-A620) After 24 hers: A549, peptide 50 μM, WST-8 absorbance after 24 hours
Procedure: as §1, §2, §3
Cells forming a […] (human alveolar basal epithelial adenocarcinoma cells, A549) were substituted for the tumor cells tested and the same test as Example 2 described above was carried out. In the present example, the peptides of Samples 1 to 13, 15 to 22, 24, 29, 35 and 40 were used.

| Compound | antitumor activity (tumor cell proliferation-inhibiting activity), in words ([1]; N1E-115, 50 or 100 μM, summary of Table 3) | A450(-A620) After 6 hers ([1]; N1E-115, peptide 50 μM) | A450(-A620) After 24 hers ([1]; N1E-115, peptide 50 μM) | A450(-A620) After 6 hers ([1]; N1E-115, peptide 100 μM) | A450(-A620) After 24 hers ([1]; N1E-115, peptide 100 μM) | formation of multipolar spindles (presence of many multipolar cells) (HeLa cells; peptide 50 μM) | A450(-A620) After 24 hers (HeLa cells (HeLa S3); HeLa S3, peptide 50 μM) | A450(-A620) After 24 hers (HeLa cells (HeLa S3); HeLa S3, peptide 100 μM) | antitumor activity (tumor cell proliferation-inhibiting activity), in words [2] | A450(-A620) After 24 hers [2] | formation of multipolar spindles (presence of many multipolar cells) (HeLa cells; peptide 100 μM) |
| --- | --- | --- | --- | --- | --- | --- | --- | --- | --- | --- | --- |
| C[C@@H]1NC(=O)[C@H](CO)NC(=O)[C@H](CO)NC(=O)[C@@H](N)CSSC[C@@H](C(=O)O)NC(=O)[C@H](CO)NC(=O)[C@H](CCCCN)NC(=O)CNC(=O)[C@H]([C@@H](C)O)NC1=O [Sample 1, CSSATGKSC] (H-CSSATGKSC-OH; disulfide 1-9; N-terminus and C-terminus assumed) | high antitumor activity | 0.1361 | 0.1578 | 0.1104 | 0.1119 | formation of multipolar spindles | 0.1028 | 0.0891 | high antitumor activity | 1.5487 |  |
| CC(C)C[C@@H]1NC(=O)[C@@H](N)CSSC[C@@H](C(=O)O)NC(=O)[C@H](CCCCN)NC(=O)[C@H](CO)NC(=O)[C@@H]2CCCN2C(=O)[C@H](CO)NC(=O)[C@@H]2CCCN2C(=O)[C@H](C)NC1=O [Sample 2, CLAPSPSKC] (H-CLAPSPSKC-OH; disulfide 1-9; N-terminus and C-terminus assumed) |  | 0.2235 | 0.3926 | 0.2094 | 0.3764 |  | 0.0924 | 0.0739 |  | 1.8971 |  |
| CC(C)C[C@@H]1NC(=O)[C@@H]2CCCN2C(=O)[C@H](Cc2ccccc2)NC(=O)[C@H](C)NC(=O)[C@H](Cc2c[nH]c3ccccc23)NC(=O)[C@@H](N)CSSC[C@@H](C(=O)O)NC(=O)[C@H](Cc2c[nH]cn2)NC(=O)[C@H](Cc2c[nH]cn2)NC1=O [Sample 5, CWAFPLHHC] (H-CWAFPLHHC-OH; disulfide 1-9; N-terminus and C-terminus assumed) |  |  |  |  |  |  | 0.0955 | 0.0952 |  | 1.8994 |  |
| CC(C)C[C@@H]1NC(=O)[C@H]([C@@H](C)O)NC(=O)[C@@H](N)CSSC[C@@H](C(=O)O)NC(=O)[C@H](CC(N)=O)NC(=O)[C@H](CO)NC(=O)[C@H](Cc2c[nH]cn2)NC(=O)[C@H](CO)NC(=O)[C@H](CC(N)=O)NC1=O [Sample 6, CTLNSHSNC] (H-CTLNSHSNC-OH; disulfide 1-9; N-terminus and C-terminus assumed) |  | 0.1633 | 0.3083 | 0.1345 | 0.2830 |  | 0.1174 | 0.0906 | high antitumor activity | 1.4667 |  |
| CC[C@H](C)[C@@H]1NC(=O)[C@H](CCC(=O)O)NC(=O)[C@@H](N)CSSC[C@@H](C(=O)O)NC(=O)[C@H]([C@@H](C)O)NC(=O)[C@H](CCCNC(=N)N)NC(=O)[C@H](CCCCN)NC(=O)[C@H](C)NC(=O)[C@H](CO)NC1=O [Sample 7, CEISAKRTC] (H-CEISAKRTC-OH; disulfide 1-9; N-terminus and C-terminus assumed) |  |  |  |  |  |  | 0.1508 | 0.1081 |  | 1.6822 |  |
| CC(C)C[C@@H]1NC(=O)[C@H](CO)NC(=O)[C@@H]2CCCN2C(=O)[C@@H]2CCCN2C(=O)[C@H](CCCNC(=N)N)NC(=O)[C@@H]2CCCN2C(=O)[C@@H](N)CSSC[C@@H](C(=O)O)NC(=O)[C@H](CCC(=O)O)NC1=O [Sample 9, CPRPPSLEC] (H-CPRPPSLEC-OH; disulfide 1-9; N-terminus and C-terminus assumed) |  |  |  |  |  | formation of multipolar spindles | 0.1366 | 0.0892 |  | 1.8645 |  |
| C[C@@H]1NC(=O)[C@H](Cc2c[nH]c3ccccc23)NC(=O)[C@H](Cc2c[nH]cn2)NC(=O)CNC(=O)[C@H]([C@@H](C)O)NC(=O)[C@@H](N)CSSC[C@@H](C(=O)O)NC(=O)[C@H](CCC(=O)O)NC(=O)[C@H](CO)NC1=O [Sample 10, CTGHWASEC] (H-CTGHWASEC-OH; disulfide 1-9; N-terminus and C-terminus assumed) |  |  |  |  |  |  | 0.0909 | 0.0915 |  | 1.7472 |  |
| GPHHYWYHLRLP [Sample 16, GPHHYWYHLRLP] |  |  | 0.6912 |  | 0.6048 |  |  |  |  | 1.7309 | formation of multipolar spindles |
| GPHLGMNQRRRP [Sample 21, GPHLGMNQRRRP] |  |  | 0.5284 |  | 0.5810 |  |  |  | high antitumor activity | 1.5672 | formation of multipolar spindles |
| SVSVGMKPSPRP [Sample 13, SVSVGMKPSPRP] |  |  | 0.5681 |  | 0.6422 |  |  |  |  | 1.9412 | formation of multipolar spindles |
| SVSVGMKPSPRPKKRTLRKNDRKKR [Sample 35] |  |  |  |  |  |  |  |  | high antitumor activity | 1.7451 | formation of multipolar spindles |
